Measured values: ChEMBL document CHEMBL1909046, “DrugMatrix in vitro pharmacology data”

Tests used:
[1] = target: T1, B2 bradykinin receptor (Homo sapiens, UniProt P30411); type: cell membranes, Membrane; conditions: chem-1; note: in other assays of this panel Not Active means under 50% inhibition at 10 µM
T1 sequence (P30411 whole entry): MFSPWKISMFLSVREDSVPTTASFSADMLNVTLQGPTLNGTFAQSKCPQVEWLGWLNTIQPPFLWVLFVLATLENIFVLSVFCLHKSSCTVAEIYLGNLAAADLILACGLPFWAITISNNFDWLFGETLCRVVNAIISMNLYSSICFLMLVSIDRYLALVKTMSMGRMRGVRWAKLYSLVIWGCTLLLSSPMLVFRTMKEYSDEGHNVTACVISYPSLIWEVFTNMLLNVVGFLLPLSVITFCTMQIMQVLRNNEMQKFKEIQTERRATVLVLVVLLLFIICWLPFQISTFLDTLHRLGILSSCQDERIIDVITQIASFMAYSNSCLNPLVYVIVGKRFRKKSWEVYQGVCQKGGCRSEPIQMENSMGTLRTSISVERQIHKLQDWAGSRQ

[2] = DRUGMATRIX: Leukotriene, BLT (LTB4) radioligand binding (ligand: [3H]LTB4); type: cell membranes, Membrane; conditions: u-937; Not Active = under 50% inhibition at 10 µM
[3] = DRUGMATRIX: Glutamate, AMPA radioligand binding (ligand: [3H] AMPA); type: cell membranes, Rattus norvegicus, Wistar, Cerebral cortex, Membrane; conditions: Not Active = under 50% inhibition at 10 µM
[4] = target: T2, Type-2 angiotensin II receptor (Homo sapiens, UniProt P50052); type: cell-based; conditions: cho-k1; note: in other assays of this panel Not Active means under 50% inhibition at 10 µM
T2 sequence (P50052 whole entry): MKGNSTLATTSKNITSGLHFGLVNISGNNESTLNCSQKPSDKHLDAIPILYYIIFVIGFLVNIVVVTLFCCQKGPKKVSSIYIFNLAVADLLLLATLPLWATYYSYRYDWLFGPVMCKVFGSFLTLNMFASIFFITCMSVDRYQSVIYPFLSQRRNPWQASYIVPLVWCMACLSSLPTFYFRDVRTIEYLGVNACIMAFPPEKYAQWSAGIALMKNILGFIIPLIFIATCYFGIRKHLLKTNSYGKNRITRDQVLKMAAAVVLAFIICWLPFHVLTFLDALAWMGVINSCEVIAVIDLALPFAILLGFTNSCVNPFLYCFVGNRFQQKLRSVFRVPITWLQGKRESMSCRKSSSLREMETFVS

[5] = target: T3, Substance-K receptor (Homo sapiens, UniProt P21452); type: cell membranes, CHO, Membrane; note: in other assays of this panel Not Active means under 50% inhibition at 10 µM
T3 sequence (P21452 whole entry): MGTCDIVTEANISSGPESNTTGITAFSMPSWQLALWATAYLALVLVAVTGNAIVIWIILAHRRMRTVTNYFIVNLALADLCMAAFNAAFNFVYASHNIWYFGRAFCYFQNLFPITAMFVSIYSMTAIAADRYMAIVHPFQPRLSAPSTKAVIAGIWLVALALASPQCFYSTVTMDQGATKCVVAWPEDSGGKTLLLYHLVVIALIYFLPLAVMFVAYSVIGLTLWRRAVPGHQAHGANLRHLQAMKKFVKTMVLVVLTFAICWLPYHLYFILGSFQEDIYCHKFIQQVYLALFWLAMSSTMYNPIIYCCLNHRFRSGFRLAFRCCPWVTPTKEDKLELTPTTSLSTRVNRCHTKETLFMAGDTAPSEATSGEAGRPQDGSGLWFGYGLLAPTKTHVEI

[6] = target: T4, Cholecystokinin receptor type A (Homo sapiens, UniProt P32238); type: cell membranes, Membrane; conditions: 1321-n1; note: in other assays of this panel Not Active means under 50% inhibition at 10 µM
T4 sequence (P32238 whole entry): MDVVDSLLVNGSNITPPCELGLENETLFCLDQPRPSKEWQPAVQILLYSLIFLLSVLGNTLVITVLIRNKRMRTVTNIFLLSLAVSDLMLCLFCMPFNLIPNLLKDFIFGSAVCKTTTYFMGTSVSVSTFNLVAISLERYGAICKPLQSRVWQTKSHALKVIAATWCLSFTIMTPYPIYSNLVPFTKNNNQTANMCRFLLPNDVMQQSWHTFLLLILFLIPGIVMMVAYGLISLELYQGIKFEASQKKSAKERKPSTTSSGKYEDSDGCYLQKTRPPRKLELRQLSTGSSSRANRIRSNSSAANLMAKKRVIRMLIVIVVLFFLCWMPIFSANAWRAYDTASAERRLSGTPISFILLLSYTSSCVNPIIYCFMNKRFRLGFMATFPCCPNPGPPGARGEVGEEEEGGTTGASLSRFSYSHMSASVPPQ

[7] = target: T5, Endothelin-1 receptor (Homo sapiens, UniProt P25101); type: cell membranes, Membrane; conditions: cho-k1; note: in other assays of this panel Not Active means under 50% inhibition at 10 µM
T5 sequence (P25101 whole entry): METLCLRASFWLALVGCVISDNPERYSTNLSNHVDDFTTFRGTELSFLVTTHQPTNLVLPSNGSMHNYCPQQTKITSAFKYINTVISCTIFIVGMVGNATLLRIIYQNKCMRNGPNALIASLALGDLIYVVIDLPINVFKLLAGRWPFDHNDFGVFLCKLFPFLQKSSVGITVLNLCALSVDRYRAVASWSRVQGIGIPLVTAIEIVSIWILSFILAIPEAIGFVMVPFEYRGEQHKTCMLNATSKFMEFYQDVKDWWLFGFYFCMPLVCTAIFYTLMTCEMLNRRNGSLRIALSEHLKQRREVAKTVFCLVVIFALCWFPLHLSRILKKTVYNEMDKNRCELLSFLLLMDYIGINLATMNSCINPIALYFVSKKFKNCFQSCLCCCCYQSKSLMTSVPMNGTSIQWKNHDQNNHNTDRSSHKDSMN

[8] = target: Melanocortin receptor 5 (Homo sapiens, UniProt P33032); type: cell membranes, Membrane; conditions: hek293; note: in other assays of this panel Not Active means under 50% inhibition at 10 µM
Chain of Melanocortin receptor 5 (P33032 whole entry): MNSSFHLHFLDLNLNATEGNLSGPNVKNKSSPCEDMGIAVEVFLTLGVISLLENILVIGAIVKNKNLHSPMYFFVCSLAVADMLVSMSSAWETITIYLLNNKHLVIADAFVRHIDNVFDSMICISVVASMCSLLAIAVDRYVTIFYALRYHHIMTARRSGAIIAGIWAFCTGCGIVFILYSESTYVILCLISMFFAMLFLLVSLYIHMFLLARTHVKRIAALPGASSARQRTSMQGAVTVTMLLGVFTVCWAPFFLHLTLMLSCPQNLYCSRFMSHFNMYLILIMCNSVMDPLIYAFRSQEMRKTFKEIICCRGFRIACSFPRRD

SMILES | IC50 [1] | IC50 [2] | Ki [2] | IC50 [3] | Ki [3] | IC50 [4] | IC50 ([5]; cho) | IC50 [6] | IC50 [7] | IC50 [8] | IC50 ([5]; read-out: IC50) [nM] | Ki ([5]; read-out: Ki) [nM]
O=C(N[C@H](CO)[C@H](O)c1ccc([N+](=O)[O-])cc1)C(Cl)Cl [CHLORAMPHENICOL] | Not Active | Not Active | Not Active | Not Active | Not Active | Not Active | Not Active | Not Active | Not Active | Not Active |  | 
Cn1c(=O)c2c(ncn2CC2OCCO2)n(C)c1=O [DOXOFYLLINE] | Not Active | Not Active | Not Active | Not Active | Not Active | Not Active | Not Active | Not Active | Not Active | Not Active |  | 
CCC1=C[C@@H]2CN(C1)Cc1c([nH]c3ccccc13)[C@@](C(=O)OC)(c1cc3c(cc1OC)N(C)[C@H]1[C@@](O)(C(=O)OC)[C@H](OC(C)=O)[C@]4(CC)C=CCN5CC[C@]31[C@@H]54)C2 [VINORELBINE] | Not Active | Not Active | Not Active | Not Active | Not Active | Not Active |  | Not Active | Not Active | Not Active | 1610 | 536
CC(C(=O)O)c1cccc(C(=O)c2ccccc2)c1 (stereo not given) [KETOPROFEN] | Not Active | Not Active | Not Active | Not Active | Not Active | Not Active | Not Active | Not Active | Not Active | Not Active |  | 
O=c1ccc2ccccc2o1 [COUMARIN] | Not Active | Not Active | Not Active | Not Active | Not Active | Not Active | Not Active | Not Active | Not Active | Not Active |  | 
CC1(C)O[C@@H]2C[C@H]3[C@@H]4C[C@H](F)C5=CC(=O)C=C[C@]5(C)[C@H]4[C@@H](O)C[C@]3(C)[C@]2(C(=O)CO)O1 [FLUNISOLIDE] | Not Active | Not Active | Not Active | Not Active | Not Active | Not Active | Not Active | Not Active | Not Active | Not Active |  | 
CC1(C)O[C@@H]2C[C@H]3[C@@H]4C[C@H](F)C5=CC(=O)C=C[C@]5(C)[C@@]4(F)[C@@H](O)C[C@]3(C)[C@]2(C(=O)CO)O1 [FLUOCINOLONE ACETONIDE] | Not Active | Not Active | Not Active | Not Active | Not Active | Not Active | Not Active | Not Active | Not Active | Not Active |  | 
N=C(Nc1ccccc1)Nc1ccccc1 | Not Active | Not Active | Not Active | Not Active | Not Active | Not Active | Not Active | Not Active | Not Active | Not Active |  | 
CC[C@@H](CO)NCCN[C@@H](CC)CO [ETHAMBUTOL] | Not Active | Not Active | Not Active | Not Active | Not Active | Not Active | Not Active | Not Active | Not Active | Not Active |  | 
CN1C(=O)COc2c(C(=O)NC3CN4CCC3CC4)cc(Cl)cc21 (stereo not given) [AZASETRON] | Not Active | Not Active | Not Active | Not Active | Not Active | Not Active | Not Active | Not Active | Not Active | Not Active |  | 
O=NN(CCCl)C(=O)NCCCl [CARMUSTINE] | Not Active | Not Active | Not Active | Not Active | Not Active | Not Active | Not Active | Not Active | Not Active | Not Active |  | 
O=C(C1CCCCC1)N1CC(=O)N2CCc3ccccc3C2C1 (stereo not given) [PRAZIQUANTEL] | Not Active | Not Active | Not Active | Not Active | Not Active | Not Active | Not Active | Not Active | Not Active | Not Active |  | 
C[C@]12CC[C@@H]3c4ccc(OC(=O)c5ccccc5)cc4CC[C@H]3[C@@H]1CC[C@@H]2O [ESTRADIOL BENZOATE] | Not Active | Not Active | Not Active | Not Active | Not Active | Not Active | Not Active | Not Active | Not Active | Not Active |  | 
C[N+](C)(C)CCO.[Cl-] [CHOLINE CHLORIDE] | Not Active | Not Active | Not Active | Not Active | Not Active | Not Active | Not Active | Not Active | Not Active | Not Active |  | 
NC(=O)NO [HYDROXYUREA] | Not Active | Not Active | Not Active | Not Active | Not Active | Not Active | Not Active | Not Active | Not Active | Not Active |  | 
C[C@@]12C(=O)OC(=O)[C@]1(C)[C@H]1CC[C@@H]2O1 [CANTHARIDIN] | Not Active | Not Active | Not Active | Not Active | Not Active | Not Active | Not Active | Not Active | Not Active | Not Active |  | 
O=S(=O)([O-])CCS.[Na+] [MESNA] | Not Active | Not Active | Not Active | Not Active | Not Active | Not Active | Not Active | Not Active | Not Active | Not Active |  | 
C/C=C/C[C@@H](C)[C@@H](O)[C@H]1C(=O)N[C@@H](CC)C(=O)N(C)CC(=O)N(C)[C@@H](CC(C)C)C(=O)N[C@@H](C(C)C)C(=O)N(C)[C@@H](CC(C)C)C(=O)N[C@@H](C)C(=O)N[C@H](C)C(=O)N(C)[C@@H](CC(C)C)C(=O)N(C)[C@@H](CC(C)C)C(=O)N(C)[C@@H](C(C)C)C(=O)N1C [CYCLOSPORINE] | Not Active | Not Active | Not Active | Not Active | Not Active | Not Active |  | Not Active | Not Active | Not Active |  | 
